Reference: PMC11078990, “Identification and characterization of small molecule inhibitors of the LINE-1 retrotransposon endonuclease” (Nature Communications, 2024)
“And” between values parts separate entries of the source, which are not always exact repeats. Equal entries are not always repeated.

Key:
[1] = molecular target: L1 EN (LINE-1 retrotransposon endonuclease domain) (Homo sapiens, UniProt O00370, N5T); test: Fluorescent oligonucleotide EN nicking activity assay; type: biochemical
APE1 = molecular target: T1, APE1 (Homo sapiens, UniProt P27695); test: APE1 fluorescent oligonucleotide activity assay (abasic site substrate); type: biochemical; conditions: for APE1 percent activity, Replicate 1 / APE1 percent activity, Replicate 2 / APE1 percent activity, Replicate 3 / APE1 percent activity, average: compound at 25 μM; for APE1 percent activity, average: average of 3 replicates; for activity at 25 µM: inhibitors at 25 μM, relative to 0 μM inhibitor control, mean ± s.d., 3 independent experiments, read-out: APE1 activity (%)
T1 construct: purchased New England Biolabs (NEB) M0282S

[2] = test system: substrate oligonucleotide used in the EN activity assay; type: binding; parameters: key to Binding Detected? (Y/N): Binding Detected? (Y/N); Binding Detected? (Y/N)
L1 retrotransposition = test: HeLa dual-luciferase L1 retrotransposition assay; type: cell-based, human; conditions: HeLa cells
[3] = [Inhibitor] 10 μM, technical replicates 1-3, Fig. 2b source data, 10 µM
[4] = [Inhibitor] 10 μM, technical replicates 1-3, Fig. 2b source data, read-out: EN activity, percent of no inhibitor control
[5] = [Inhibitor] 25 μM, technical replicates 1-3, Fig. 2b source data, 25 µM
[6] = [Inhibitor] 50 μM, technical replicates 1-3, Fig. 2b source data, 50 µM
[7] = [Inhibitor] 50 μM, technical replicates 1-3, Fig. 2b source data, read-out: EN activity, percent of no inhibitor control
[8] = [Inhibitor] 100 μM, technical replicates 1-3, Fig. 2b source data, 100 µM
[9] = [Inhibitor] 250 μM, technical replicates 1-3, Fig. 2b source data, 250 µM
[10] = [Inhibitor] 250 μM, technical replicates 1-3, Fig. 2b source data, read-out: EN activity, percent of no inhibitor control
[11] = [Inhibitor] 100 μM, technical replicates 1-3, Fig. 2b source data, read-out: EN activity, percent of no inhibitor control
[12] = [Inhibitor] 500 μM, technical replicates 1-3, Fig. 2b source data, 500 µM
[13] = [Inhibitor] 500 μM, technical replicates 1-3, Fig. 2b source data, read-out: EN activity, percent of no inhibitor control
[14] = [Inhibitor] 1000 μM, technical replicates 1-3, Fig. 2b source data, 1000 µM
[15] = [Inhibitor] 2500 μM, technical replicates 1-3, Fig. 2b source data, 2500 µM

Sequence of L1 EN (LINE-1 retrotransposon endonuclease domain) (O00370 1-239 N5T): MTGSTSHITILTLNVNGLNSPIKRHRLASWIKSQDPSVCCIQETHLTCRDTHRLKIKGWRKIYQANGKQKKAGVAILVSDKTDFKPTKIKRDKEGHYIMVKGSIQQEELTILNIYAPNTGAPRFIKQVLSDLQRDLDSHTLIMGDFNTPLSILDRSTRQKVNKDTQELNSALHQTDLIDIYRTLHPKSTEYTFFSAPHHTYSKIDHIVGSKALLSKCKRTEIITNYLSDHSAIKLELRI

Row | Compound | EN activity, percent of no inhibitor control [1, 3] | remaining activity at 10 µM [1, 4] [%] | EN activity, percent of no inhibitor control [1, 5] | EN activity, percent of no inhibitor control [1, 6] | remaining activity at 50 µM [1, 7] [%] | EN activity, percent of no inhibitor control [1, 8] | EN activity, percent of no inhibitor control [1, 9] | remaining activity at 250 µM [1, 10] [%] | APE1 percent activity, Replicate 1 (APE1) [%] | APE1 percent activity, Replicate 2 (APE1) [%] | APE1 percent activity, Replicate 3 (APE1) [%] | APE1 percent activity, average (APE1) [%] | activity at 25 µM (APE1) [%] | Binding Detected? (Y/N) [2] | remaining activity at 100 µM [1, 11] [%] | EN activity, percent of no inhibitor control [1, 12] | remaining activity at 500 µM [1, 13] [%] | EN activity, percent of no inhibitor control [1, 14] | EN activity, percent of no inhibitor control [1, 15] | further results
1 | COc1ccc([N+](=O)[O-])cc1NC(=O)c1ccc2c(c1)N(Cc1cc(C)ccc1C)C(=O)c1ccccc1S2(=O)=O [AD34] | 61.3218% | 63.6 | 17.0147% | 2.345% | 1.88 | -0.6009% and -1.977% (2×) | 6.512% | 4.89 | 115.867 | 110.244 | 115.389 | 113.833 | 114 ± 3.1 | N | – | – | – | – | – | EN activity, percent of no inhibitor control ([1]; [Inhibitor] 1 μM, technical replicates 1-3, Fig. 2b source data, 1 µM): 107.144% and 82.3328% (2×); EN activity, percent of no inhibitor control ([1]; [Inhibitor] 5 μM, technical replicates 1-3, Fig. 2b source data, 5 µM): 106.747% and 72.7727% (2×); remaining activity at 25 µM ([1]; [Inhibitor] 25 μM, technical replicates 1-3, Fig. 2b source data, read-out: EN activity, percent of no inhibitor control): 13.4%; Effect on L1 retrotransposition (L1 retrotransposition): did not significantly impact retrotransposition
2 | O=C(O)C1CCC(Cn2c(=S)[nH]c3ccc(F)cc3c2=O)CC1 (centres unmarked) [AD41] | 93.0871% and 88.0691% | 99.2 | – | 81.1063% and 95.3657% | 81.9 | 73.6781% and 70.7755% | 52.6672% and 53.2546% | 37.1 | 117.184 | 102.457 | 114.725 | 111.455 | 112 ± 7.9 | N | 89.5 | 15.8485% and 15.0123% | 16.8 | 2.51% and 3.937% | -0.5395% and 2.354% and 1.088% | remaining activity at 1000 µM ([1]; [Inhibitor] 1000 μM, technical replicates 1-3, Fig. 2b source data, read-out: EN activity, percent of no inhibitor control): 3.26%; EN activity, percent of no inhibitor control ([1]; [Inhibitor] 5000 μM, technical replicates 1-3, Fig. 2b source data, 5000 µM): 3.138% and -0.1325% and -0.6231%
3 | Cc1cc(O[C@H](C)C(=O)NC[C@H]2CC[C@H](C(=O)O)CC2)c2c3c(c(=O)oc2c1)CCC3 [AD50] | 88.1732% and 95.3255% | 89.8 | 105.309% and 98.5437% and 118.945% | 102.098% and 94.5993% | 99.1 | 99.5828% and 92.7301% | 85.2034% and 69.8502% | 78.9 | 117.885 | 112.48 | 116.717 | 115.694 | 116 ± 2.8 | N | 105 | 1.6976% and 1.409% | 1.24 | 0.8764% and -0.04895% and -0.3009% | 1.256% and 0.4525% and 1.333% | –
4 | NC[C@H]1CC[C@H](C(=O)O)CC1 [tranexamic acid, reference compound] | – | – | – | – | – | – | – | – | – | – | – | – | – | – | – | – | – | – | – | IC50 in the fluorescent oligonucleotide assay [1]: does not inhibit sufficiently to calculate an; inhibition at 25000 µM ([1]; 25 mM, highest soluble concentration): ~75%
